Data set [1] in a line: Test of kinetics in blood of rats. In kind it is in vivo. The protocol: Each of the compound of the present invention and the carboxylic acid type A thereof was dissolved in DMSO, diluted with water. A sample solution (1% DMSO solution) made into 2 mg/mL was orally administered in a single dose to the fasted Wistar strain SPF male rats of seven weeks age using a stomach tube (10 mg/5 mL/kg). At the stages of 0.25, 0.5, 1, 2, 4 and 8 hour(s) after the administration, about 150 μL of the blood was collected from tail vein using a capillary to which heparin was added and said capillary was centrifuged to collect the plasma. Protein was removed from the plasma sample and the supernatant liquid was diluted to prepare each sample solution for the measurement.

Another data set relates to mice. Briefly: Test for analgesic effect (4): acetic acid writhing test. In kind it is in vivo. To be noted: oral single dose; 0.7% acetic acid i.p. 25 minutes after; writhing numbers during 10 minutes. The method, then:
The compounds of the present invention or the carboxylic acid type thereof were orally administered to mice and a test for an analgesic effect was carried out by means of an acetic acid writhing test. As to the test animals, male mice of ddY strain of four weeks age were subjected to a preliminary breeding and they were used where one group comprised ten mice. Each of the compound of the present invention or the carboxylic acid type thereof as a test substance was orally administered in a single dose while, to a control group, distilled water (water for injection) was administered similarly. After 25 minutes from the administration of the test substance, a 0.7% acetic acid/physiological saline was intraperitoneally administered at the dose of 10 mL/kg. From 5 minutes thereafter, writhing numbers during 10 minutes were counted and a suppressive rate for each mouse was calculated according to the following formula. Suppressive Rate (%)=[(Mean writhing numbers of the control group)−(Writhing numbers of each mouse)]÷[Mean writhing numbers of the control group]×100
Background: Writhing tests count abdominal constrictions after an irritant is injected.

The next data set has as its system SART stressed mouse. Briefly: Test for analgesic effect (1): SART stressed mouse, modified Randall-Selitto tail pressure method. In kind it is in vivo, mice. The note with it: for Analgesic coefficient: 25 ng per mouse into the lateral ventricle, 30 minutes after administration, pain threshold of test group divided by that of SART control group, 1.0 = no effect.
Details of data set [2]: species or system cynomolgus monkeys. To be noted: cynomolgus monkey, in vivo, 30 mg/kg. The protocol: Each of the compound of the present invention and Carboxylic acid type A thereof dissolved or suspended in a hydrochloric acid solution was diluted with water. […] At the stages of before the administration and of 0.25, 0.5, 1, 2, 4, 8 and 24 hour(s) after the administration, the blood was collected from femoral vein using a syringe to which heparin was added followed by subjecting to centrifugation to collect the plasma. Collection of the blood was conducted for three times in total where one collection was done with each blank term of six days for each test substance. Concentration of Carboxylic acid type A in each of the collected plasma samples was quantified by an LC-MS and Cmax (maximum drug concentration in plasma) and AUC (area under blood concentration time curve; 0 to ∞ hour(s)) of the compound of the present invention and Carboxylic acid type A thereof were calculated.

The next data set deals with Chung model rat. Briefly: Test for analgesic effect (2)/(3): Chung model rat, mechanical allodynia by von Frey filament. In kind it is in vivo, rats. The method, then:
A test for analgesic effect was conducted using a Chung model rat which is a neuropathic pain model. As to the test animal, male rats of Wistar strain of nine weeks age were used and model rats were prepared in accordance with the method of Kim and Chung (Pain, vol. 50, pages 355 to 363, 1992). Thus, under anesthetization with pentobarbital (40 mg/kg, intraperitoneal administration), rat L5 spinal nerve was exposed and L5 dorsal root ganglion periphery side was strongly ligated using 5-0 silk yarn. The animals were placed in a transparent acrylate cage whose bottom was made of wire net, a 50% reaction threshold value was calculated by an up-down method using a von Frey filament (manufactured by North Coast Medical Inc.) according to the methods of Chaplan, et al. (J. Neurosci. Method, vol. 53, pages 55 to 63, 1994) and by Lee, et al. (J. Neurophysiol., vol. 81, pages 2226 to 2233, 1999) and measurement of allodynia was conducted. Before injury of spinal nerve, the 50% reaction threshold value was measured twice and the animals where the threshold value was outside the standard were excluded from the operation for spinal nerve injury. […] Those test animals were made into groups of seven animals so that the mean value of 50% reaction threshold after 28 days from the nerve injury as an index became nearly the same in each group.
The carboxylic acid type of the compounds of the present invention as a test substance was intraperitoneally administered in a single dose while, a 0.5% CMC-Na/physiological saline solution was administered similarly to a nerve injury control group. After 30 minutes from the administration of the test substance, allodynia was measured to calculate a 50% reaction threshold value. With regard to a significance test, Paired t-test was conducted for comparison between before and after the nerve injury and Dunnett's multiple comparison test was used for comparison among multiple groups of the nerve injury control group and the test substance administration group.
According to the same manner as in the above Test for Analgesic Effect (2), each of Compound 12 of the present invention (3 mg/kg, 10 mg/kg) and Carboxylic acid substance A of the compound of the present invention (10 mg/kg) was orally administered in a single dose as the test substance to Chung model rats. Allodynia after 0, 15, 30, 60 and 120 minutes from the administration was measured for each of the test substance administration group and the nerve injury control group whereupon a 50% reaction threshold value was calculated.

The results in this text go back to patent publication US8324261B2, “Histidine derivatives” (Nippon Zoki Pharmaceutical Co., Ltd., priority 2007, dated 2012).

As usually defined, the AUC is concentration integrated over time. Higher therefore signals more exposure. In general, Cmax refers to the peak of the concentration-time curve.

Read-outs that look alike come from different tables or passages of the source.

`C=CC(=O)N[C@@H](Cc1cncn1C)C(=O)OCC` [Compound 2, N^α-acryloyl-N^π-methyl-L-histidine ethyl ester]: in data set [1] (rat, in vivo, po, 10 mg/kg), the “AUC” value stood at 3468.0 ng·h/mL and the peak concentration (Cmax) came to 2719.4 ng/mL.

`C=CC(=O)N[C@@H](Cc1cncn1C)C(=O)OCc1ccc(Cl)cc1` [Compound 10, N^α-acryloyl-N^π-methyl-L-histidine 4-chlorobenzyl ester]: in data set [1] (rat, in vivo, po, 10 mg/kg), the area under the curve (AUC) is 3747.0 ng·h/mL and the “Cmax” value is recorded as 2579.9 ng/mL.

`C=CC(=O)N[C@@H](Cc1cncn1C)C(=O)OCc1ccc(C)cc1` [Compound 9, N^α-acryloyl-N^π-methyl-L-histidine 4-methylbenzyl ester]: in data set [1] (rat, in vivo, po, 10 mg/kg), the area under the curve (AUC) was found to be 3750.7 ng·h/mL and the “Cmax” value was found to be 2671.7 ng/mL.

For `C=CC(=O)N[C@@H](Cc1cncn1C)C(=O)OCCC(C)(C)C` [Compound 5, N^α-acryloyl-N^π-methyl-L-histidine 3,3-dimethylbutyl ester], in data set [1] (rat, in vivo, po, 10 mg/kg), the “AUC” value turned out to be 3264.2 ng·h/mL and the “Cmax” value is on record as 2761.6 ng/mL.

Take `C=CC(=O)N[C@@H](Cc1cncn1C)C(=O)OCCc1ccc(Cl)cc1` [Compound 15, N^α-acryloyl-N^π-methyl-L-histidine 4-chlorophenethyl ester]: in data set [1] (rat, in vivo, po, 10 mg/kg), the exposure (AUC) was found to be 3620.6 ng·h/mL and the peak concentration (Cmax) amounted to 2391.8 ng/mL.

Turning to `C=CC(=O)N[C@@H](Cc1cncn1C)C(=O)OCc1ccc(C(C)(C)C)cc1` [Compound 11, N^α-acryloyl-N^π-methyl-L-histidine 4-tert-butylbenzyl ester], in data set [1] (rat, in vivo, po, 10 mg/kg), the “AUC” value was 4234.6 ng·h/mL and the “Cmax” value is 2207.4 ng/mL.

For the compound `CC(C)=CC(=O)N[C@@H](Cc1cncn1C)C(=O)O` [Carboxylic acid type E, N^α-3-metylcrotonoyl-N^π-methyl-L-histidine], the “Suppressive Rate (%)” value in the data set on mice was 17.8%.

Consider `C=CC(=O)N[C@@H](Cc1cncn1C)C(=O)OCCc1ccc(OC)cc1` [Compound 13, N^α-acryloyl-N^π-methyl-L-histidine 4-methoxyphenethyl ester], for which, in data set [1] (rat, in vivo, po, 10 mg/kg), the “AUC” value was 4058.3 ng·h/mL and the “Cmax” value worked out at 3163.4 ng/mL.

With `CCn1cncc1C[C@H](NC(=O)C=Cc1ccccc1)C(=O)O` [Carboxylic acid type C, N^α-3-phenylpropenoyl-N^π-ethyl-L-histidine], the Analgesic coefficient with SART stressed mouse was found to be 1.14. In addition, in the data set on mice, the “Suppressive Rate (%)” value was found to be 27.7%.

With `Cl.Cn1cncc1C[C@H](NC(=O)C=Cc1ccccc1O)C(=O)OCCc1ccccc1` [Compound 26, N^α-[3-(2-hydroxyphenyl)acryloyl]-N^π-methyl-L-histidine phenethyl ester hydrochloride], the “Suppressive Rate (%)” value in the data set on mice was determined as 23.8%.

Turning to `C=CC(=O)N[C@@H](Cc1cncn1C)C(=O)OC` [Compound 1, N^α-acryloyl-N^π-methyl-L-histidine methyl ester], in data set [1] (rat, in vivo, po, 10 mg/kg), the “AUC” value was 2027.6 ng·h/mL and the “Cmax” value is 1623.9 ng/mL.

As for `C=CC(=O)N[C@@H](Cc1cncn1C)C(=O)OC(c1ccccc1)c1ccccc1` [Compound 24, N^α-acryloyl-N^π-methyl-L-histidine diphenylmethyl ester], in data set [1] (rat, in vivo, po, 10 mg/kg), the “AUC” value worked out at 2614.2 ng·h/mL and the “Cmax” value is on record as 1495.3 ng/mL.

In the case of `NCCC(=O)N[C@@H](Cc1cnc[nH]1)C(=O)O` [carnosine, β-ananyl-L-histidine, reference compound], the analgesic action result in the data set on SART stressed mouse (administration into the lateral ventricle) was “no significant analgesic action”.

Consider `CC=CC(=O)N[C@@H](Cc1cncn1C)C(=O)O` [Carboxylic acid type B, N^α-crotonoyl-N^π-methyl-L-histidine], for which the Analgesic coefficient with SART stressed mouse is 1.23.

Turning to `C=CC(=O)N[C@@H](Cc1cncn1C)C(=O)OC(C)OC(=O)OC1CCCCC1` (stereo partly drawn) [Compound 17, N^α-acryloyl-N^π-methyl-L-histidine 1-(cyclohexyloxycarbonyloxy)ethyl ester], in data set [1] (rat, in vivo, po, 10 mg/kg), the “AUC” value amounted to 2704.9 ng·h/mL and the peak concentration (Cmax) turned out to be 2044.3 ng/mL.

Consider `C=CC(=O)N[C@@H](Cc1cncn1C)C(=O)OCCCC` [Compound 6, N^α-acryloyl-N^π-methyl-L-histidine butyl ester], for which, in data set [1] (rat, in vivo, po, 10 mg/kg), the “AUC” value came to 2774.6 ng·h/mL and the “Cmax” value worked out at 2407.2 ng/mL.

For `C=CC(=O)N[C@@H](Cc1cncn1C)C(=O)OCCc1ccc(C)cc1` [Compound 14, N^α-acryloyl-N^π-methyl-L-histidine 4-methylphenethyl ester], in data set [2], the “AUC” value came to 5133.2 ng·h/mL and the “Cmax” value came out at 779.2 ng/mL.

Turning to `C=CC(=O)N[C@@H](Cc1cncn1C)C(=O)OCCc1ccc(C(C)(C)C)cc1` [Compound 16, N^α-acryloyl-N^π-methyl-L-histidine 4-tert-butylphenethyl ester], in data set [1] (rat, in vivo, po, 10 mg/kg), the “AUC” value was 3601.8 ng·h/mL and the “Cmax” value is 2562.7 ng/mL.

On to `C=CC(=O)N[C@@H](Cc1cncn1C)C(=O)OCC(C)(C)C` [Compound 3, N^α-acryloyl-N^π-methyl-L-histidine neopentyl ester], for which, in data set [1] (rats, oral 10 mg/kg single dose, 0 to 8 hours, Carboxylic acid type A quantified in plasma, values converted to dose equimolar to Carboxylic acid type A), the area under the curve (AUC) stood at 2373.9 ng·h/mL. Further, the “Cmax” value in data set [1] (rats, oral 10 mg/kg single dose, Carboxylic acid type A quantified in plasma, values converted to dose equimolar to Carboxylic acid type A) is recorded as 2074.0 ng/mL.

In the case of `C=CC(=O)N[C@@H](Cc1cncn1C)C(=O)OCCC(C)C` [Compound 4, N^α-acryloyl-N^π-methyl-L-histidine isopentyl ester], in data set [1] (rat, in vivo, po, 10 mg/kg), the “AUC” value was 2641.8 ng·h/mL and the “Cmax” value is reported as 2144.0 ng/mL.

As to `C=CC(=O)N[C@@H](Cc1cncn1C)C(=O)OCCc1ccccc1` [Compound 12, N^α-acryloyl-N^π-methyl-L-histidine phenethyl ester], the “anti-allodynia action as compared with the nerve injury control group” value in the data set on Chung model rat (oral single dose (Compound 12: 3 and 10 mg/kg; Carboxylic acid type A: 10 mg/kg), 15, 30 and 60 minutes after administration, FIG. 1) is “significant anti-allodynia action”. Further, the “anti-allodynia action compared with Carboxylic acid type A in the same dose” value with Chung model rat (oral, 10 mg/kg) is given as “stronger anti-allodynia action”. In addition, in data set [1] (rat, in vivo, po, 10 mg/kg), the “AUC” value was determined as 3971.6 ng·h/mL and the “Cmax” value was 3111.6 ng/mL. In data set [2], the “AUC” value stood at 8099.0 ng·h/mL and the highest concentration (Cmax) is recorded as 4088.2 ng/mL.

As to `C=CC(=O)N[C@@H](Cc1cncn1Cc1ccccc1)C(=O)O` [Carboxylic acid type D, N^α-acryloyl-N^π-benzyl-L-histidine], in the data set on Chung model rat (intraperitoneal single dose), the “threshold as compared with the nerve injury control group” value was “significant increase in the threshold”. Besides, the “50% reaction threshold value” in the data set on Chung model rat (intraperitoneally 400 μg/kg single dose, 30 minutes after administration) is 7.32 g. The “Suppressive Rate (%)” value with mice was found to be 37.9%.
